Where two headings read alike, the source gives them in different places.
Experiments:
NCI-H1650 = experiment: CellTiter Glo 3D spheroid proliferation/survival, 5 days, NCI-H1650, 0.0005-500 nM (Example 10); format: cell-based, human; details: spheroids; for IC50 / NCI-H1650 IC50 (nM): 0.0005-500 nM
Description: One target was assessed: EGFR.
The ability of the BCL-xL antibody drug conjugates to inhibit cell proliferation and survival was assessed using the Promega CellTiter-Glo® proliferation assay.
Cell lines were cultured in media that is optimal for their growth at 5% CO2, 37° C. in a tissue culture incubator. Prior to seeding for the proliferation assay, the cells were split at least 2 days before the assay to ensure optimal growth density. […] Cell viability and cell density were determined using a cell counter (Vi-Cell XR Cell Viability Analyzer, Beckman Coulter).
Cells were seeded at a density of 3,000 cells per well in 45 uL of standard growth media. Plates were spun in a centrifuge for 5 minutes and 1,000 RPM. Plates were incubated at 5% CO2, 37° C. for 72 hours in a tissue culture incubator. On the day of dosing, EGFR targeting BCL-xL ADCs were prepared at 1OX in standard growth media. The prepared drug treatments were then added to the cells resulting in final concentrations of 0.0005-500 nM and a final volume of 50 μL per well. Each drug concentration was tested in quadruplets. Plates were incubated at 5% CO2, 37° C. for 5 days in a tissue culture incubator.
Cell viability was assessed through the addition of 40 μL of CellTiter Glo 3D Cell Viability Assay substrate (Promega, cat #G9681), a reagent which lyses cells and measures total adenosine triphosphate (ATP) content. Wells were mixed thoroughly and plates were incubated at room temperature for 30 minutes to stabilize luminescent signals prior to reading using a luminescence reader (EnVision Multilabel Plate Reader, PerkinElmer).
To evaluate the effect of the drug treatments, luminescent counts from wells containing untreated cells (100% viability) were used to normalize treated samples. […] IC50 and Amax values were extrapolated from the resultant curves.

H1650 cells = experiment: CellTiterGlo (CTG) cell viability, 3D, 120 h, H1650 (Example 8); format: cell-based, human; details: Homo sapiens, NCI-H1650, H1650 3D
HCC1569 cells = experiment: CellTiterGlo (CTG) cell viability, 120 h, HCC1569, single agent or with 10 nM Paclitaxel; format: cell-based; details: Homo sapiens
Description: HCC1569 cells were cultivated in RPMI supplemented with 10% heat inactivated fetal bovine serum, penicillin (100 IU/ml), streptomycin (100 μg/ml) and L-glutamine (2 mM). Cell lines were cultured at 37° C. in a humidified atmosphere containing 5% 002. […] Effects of ADCs on cell viability were assessed after 5 days of incubation at 37° C./5% CO2 by quantification of cellular ATP levels using CellTiterGlo at 75 μL reagent/well. All the conditions were tested in triplicates. Luminescence was quantified on a multipurpose plate reader. IC50s were calculated using standard four-parametric curve fitting.

Structure (SMILES)	IC50 (NCI-H1650)	further results
COCCOCCOCCOCCOCCOCCOCCOCCn1cc(COC(=O)N(Cc2cn(CCOCCOCCOCCOCCOCCOCCOCCOC)nn2)Cc2cc(NC(=O)[C@H](CCCNC(N)=O)NC(=O)[C@@H](NC(=O)CCOCCN3C(=O)CC(C)C3=O)C(C)C)ccc2C[N+](C)(C)CC#Cc2ccc(OCCCc3sc(N4CCCc5c4nnc(Nc4nc6ccccc6s4)c5C)nc3C(=O)O)c(F)c2)nn1 (mixture of isomers) [EGFR1-L1A-P1]	< 0.686 nM	–
COCCOCCOCCOCCOCCOCCOCCOCCn1cc(COC(=O)N(Cc2cn(CCOCCOCCOCCOCCOCCOCCOCCOC)nn2)Cc2cc(NC(=O)[C@H](CCCNC(N)=O)NC(=O)[C@@H](NC(=O)CCOCCN3C(=O)CC(C)C3=O)C(C)C)ccc2C[N+](C)(C)CC#Cc2ccc(OCCCc3sc(N(C)c4cc(C)c(Nc5nc6ccccc6s5)nn4)nc3C(=O)O)c(F)c2)nn1 (mixture of isomers) [EGFR1-L1A-P2]	< 6.17 nM	–
Cc1c(Nc2nc3ccccc3s2)nnc2c1CCCN2c1nc(C(=O)O)c(CCCOc2ccc(C#CC[N+](C)(C)Cc3ccc(NC(=O)[C@H](CCCNC(N)=O)NC(=O)[C@@H](NC(=O)CCOCCN4C(=O)CC(C)C4=O)C(C)C)cc3CN(C)C(=O)OCc3cn(CCOCCOCCOCCOCCOCCOCCOCCOCCC(=O)O)nn3)cc2F)s1 (mixture of isomers) [EGFR1-L3A-P1]	< 0.686 nM	NCI-H1650 Amax (Span) (NCI-H1650): >100
Cc1c(Nc2nc3ccccc3s2)nnc2c1CCCN2c1nc(C(=O)O)c(CCCOc2ccc(C#CCN(C)C(=O)COc3ccc(NC(=O)[C@H](CCCNC(N)=O)NC(=O)[C@@H](NC(=O)CCOCCN4C(=O)CC(C)C4=O)C(C)C)cc3CN(C)C(=O)OCc3cn(CCOCCOCCOCCOCCOCCOCCOCCOCCC(=O)O)nn3)cc2F)s1 (mixture of isomers) [EGFR1-L3C-P3]	–	NCI-H1650 Amax (Span) (NCI-H1650): 100.6
Cc1cc(N(CCCC(O)C[N+](C)(C)C)c2nc(C(=O)O)c(CCCOc3ccc(C#CCN(C)C(=O)OCc4ccc(NC(=O)[C@H](CCCNC(N)=O)NC(=O)[C@@H](NC(=O)CCOCCN5C(=O)CC(C)C5=O)C(C)C)cc4CN(C)C(=O)OCc4cn(CCOCCOCCOCCOCCOCCOCCOCCOCCC(=O)O)nn4)cc3F)s2)nnc1Nc1nc2ccccc2s1 (mixture of isomers) [EGFR1-L3C-P5]	> 500 nM	–
COCCOCCOCCOCCOCCOCCOCCOCCn1cc(COC(=O)N(C)Cc2cc(NC(=O)[C@H](CCCNC(N)=O)NC(=O)[C@@H](NC(=O)CCOCCN3C(=O)CC(C)C3=O)C(C)C)ccc2C[N+](C)(C)CC#Cc2ccc(OCCCc3sc(N4CCCc5c4nnc(Nc4nc6ccccc6s4)c5C)nc3C(=O)O)c(F)c2)nn1 (mixture of isomers) [EGFR1-L4A-P1]	< 0.686 nM	–
Cc1c(Nc2nc3ccccc3s2)nnc2c1CCCN2c1nc(C(=O)O)c(CCCOc2ccc(C#CC[N+](C)(C)Cc3ccc(NC(=O)[C@H](CCCNC(N)=O)NC(=O)[C@@H](NC(=O)CCOCCN4C(=O)CC(C)C4=O)C(C)C)cc3COCc3cn(CCOCCOCCOCCOCCOCCOCCOCCOCCC(=O)O)nn3)cc2F)s1 (mixture of isomers) [EGFR1-L7A-P1]	< 0.686 nM	–
Cc1c(Nc2nc3ccccc3s2)nnc2c1CCCN2c1nc(C(=O)O)c(CCCOc2ccc(C#CCN(C)C(=O)OCc3ccc(NC(=O)[C@H](CCCNC(N)=O)NC(=O)[C@@H](NC(=O)CCOCCN4C(=O)CC(C)C4=O)C(C)C)cc3COCc3cn(CCOCCOCCOCCOCCOCCOCCOCCOCCC(=O)O)nn3)cc2F)s1 (mixture of isomers) [EGFR1-L7C-P3]	< 6.17 nM	–
Cc1cc(N(CCCN(C)C)c2nc(C(=O)O)c(CCCOc3ccc(C#CCN(C)C(=O)OCc4ccc(NC(=O)[C@H](CCCNC(N)=O)NC(=O)[C@@H](NC(=O)CCOCCN5C(=O)CC(C)C5=O)C(C)C)cc4COCc4cn(CCOCCOCCOCCOCCOCCOCCOCCOCCC(=O)O)nn4)cc3F)s2)nnc1Nc1nc2ccccc2s1 (mixture of isomers) [EGFR1-L7C-P6]	> 500 nM	–
Cc1cc(N(C)c2nc(C(=O)O)c(CCCOc3ccc(C#CCN(C)C(=O)OCc4ccc(NC(=O)[C@H](CCCNC(N)=O)NC(=O)[C@@H](NC(=O)CCOCCN5C(=O)CC(C)C5=O)C(C)C)cc4COCc4cn(CCOCCOCCOCCOCCOCCOCCOCCOCCC(=O)O)nn4)cc3F)s2)nnc1Nc1nc2ccccc2s1 (mixture of isomers) [EGFR1-L7C-P7]	< 55.6 nM	–
COCOCCOCCOCCOCCOCCOCCOCCn1cc(COCc2cc(NC(=O)[C@@H](CCCNC(N)=O)NC(=O)[C@H](NC(=O)CCOCCN3C(=O)CC(C)C3=O)C(C)C)ccc2C[N+](C)(C)CC#Cc2ccc(OCCCc3sc(N4CCCc5c4nnc(Nc4nc6ccccc6s4)c5C)nc3C(=O)O)c(F)c2)nn1 (mixture of isomers) [EGFR1-L8A-P1]	< 2.06 nM	–
Cc1cc(N(CCCC(O)C[N+](C)(C)CCS(=O)(=O)O)c2nc(C(=O)O)c(CCCOc3ccc(C#CCN(C)C(=O)OCc4ccc(NC(=O)[C@H](CCCNC(N)=O)NC(=O)[C@@H](NC(=O)CCOCCN5C(=O)CC(C)C5=O)C(C)C)cc4)cc3F)s2)nnc1Nc1nc2ccccc2s1 (mixture of isomers) [EGFR1-L9C-P4]	> 500 nM	–
Cc1cc(N(CCCC(O)C[N+](C)(C)C)c2nc(C(=O)O)c(CCCOc3ccc(C#CCN(C)C(=O)OCc4ccc(NC(=O)[C@H](CCCNC(N)=O)NC(=O)[C@@H](NC(=O)CCOCCN5C(=O)CC(C)C5=O)C(C)C)cc4)cc3F)s2)nnc1Nc1nc2ccccc2s1 (mixture of isomers) [EGFR1-L9C-P5]	> 500 nM	–
Cc1cc(N(C)c2nc(C(=O)O)c(CCCOc3ccc(C#CC[N+](C)(C)Cc4ccc(NC(=O)[C@H](CCCNC(N)=O)NC(=O)[C@@H](NC(=O)CCOCCN5C(=O)CC(C)C5=O)C(C)C)cc4CN(Cc4cn(CCOCCOCCOCCOCCOCCOCCOCCOCCC(=O)O)nn4)C(=O)OCc4cn(CCOCCOCCOCCOCCOCCOCCOCCOCCC(=O)O)nn4)cc3F)s2)nnc1Nc1nc2ccccc2s1 (mixture of isomers) [EGFR1-L10A-P2]	< 6.17 nM	–
Cc1c(Cc2nc3ccccc3s2)nnc2c1CCCN2c1nc(C(=O)O)c(CCCOc2ccc(C#CCN(C)C(=O)OCc3ccc(NC(=O)[C@H](CCCNC(N)=O)NC(=O)[C@@H](NC(=O)CCOCCN4C(=O)CC(C)C4=O)C(C)C)cc3CN(Cc3cn(CCOCCOCCOCCOCCOCCOCCOCCOCCC(=O)O)nn3)C(=O)OCc3cn(CCOCCOCCOCCOCCOCCOCCOCCOCCC(=O)O)nn3)cc2F)s1 (mixture of isomers) [EGFR1-L10C-P3]	< 18.5 nM	–
Cc1cc(N(CCCC(O)C[N+](C)(C)CCCS(=O)(=O)O)c2nc(C(=O)O)c(CCCOc3ccc(C#CCN(C)C(=O)OCc4ccccc4CN(C)C(=O)OCc4cn(CCOCCOCCOCCOCOCCOCCOCCOCCCC(=O)O)nn4)cc3F)s2)nnc1Nc1nc2ccccc2s1 (stereo not shown) [EGFR1-L3C-P4]	> 500 nM	–
Cc1c(Nc2nc3ccccc3s2)nnc2c1CCCN2c1ccc(-c2cnn(CC34CC5(C)CC(C)(C3)CC(OCCN(CC[C@H](O)CO)C(=O)OCc3ccc(NC(=O)[C@H](CCCNC(N)=O)NC(=O)[C@@H](NC(=O)CCOCCN6C(=O)C=CC6=O)C(C)C)cc3CN(C)C(=O)CCOCCOCCOCCOCCOCCOCCOCCOCCOCCOCCOCCOCCOCCOCCOCCOCCOCCOCCOCCOCCOCCOCCOCCOCCOCCC(=O)O)(C5)C4)c2C)c(C(=O)O)n1 [L11C-P19]	–	NCI-H1650 IC50 (nM) (NCI-H1650): among the most potent
Cc1c(Nc2nc3ccccc3s2)nnc2c1CCCN2c1ccc(-c2cnn(CC34CC5(C)CC(C)(C3)CC(OCCN(CCCO)C(=O)OCc3ccc(NC(=O)[C@H](CCCNC(N)=O)NC(=O)[C@@H](NC(=O)CCOCCN6C(=O)C=CC6=O)C(C)C)cc3CN(C)C(=O)CCOCCOCCOCCOCCOCCOCCOCCOCCOCCOCCOCCOCCOCCOCCOCCOCCOCCOCCOCCOCCOCCOCCOCCOCCOCCC(=O)O)(C5)C4)c2C)c(C(=O)O)n1 [L11C-P25]	–	NCI-H1650 IC50 (nM) (NCI-H1650): among the most potent
Cc1cc(N(C)c2nc(C(=O)O)c(CCCOc3ccc(C#CCN(C)C)cc3F)s2)nnc1Nc1nc2ccccc2s1 [P2, 2-[[6-(1,3-benzothiazol-2-ylamino)-5-methyl-pyridazin-3-yl]-methyl-amino]-5-[3-[4-[3-(dimethylamino)prop-1-ynyl]-2-fluoro-phenoxy]propyl]thiazole-4-carboxylic acid]	–	IC50 (H1650 cells; experiment n1, read-out: H1650 3D CTG IC50 n1): 1.06 nM; IC50 (H1650 cells; experiment n2, read-out: H1650 3D CTG IC50 n2): 1.9 nM; IC50 (H1650 cells; mean of n1 and n2, read-out: H1650 3D CTG IC50 Mean of n1 and n2): 1.48 nM; IC50 (HCC1569 cells; HCC1569, read-out: HCC1569 CTG 120 h IC50 nM + Paclitaxel 10 nM Mean N1 and N2, in the presence of 10 nM Paclitaxel, mean): 0.111 nM; IC50 (HCC1569 cells; HCC1569, read-out: HCC1569 CTG 120 h IC50 nM + Paclitaxel 10 nM N1, in the presence of 10 nM Paclitaxel, N1): 0.126 nM; IC50 (HCC1569 cells; HCC1569, read-out: HCC1569 CTG 120 h IC50 nM + Paclitaxel 10 nM N2, in the presence of 10 nM Paclitaxel, N2): 0.096 nM; IC50 (HCC1569 cells; HCC1569, read-out: HCC1569 CTG 120 h IC50 nM Mean N1 and N2, single agent, mean): 12.4 nM; IC50 (HCC1569 cells; HCC1569, read-out: HCC1569 CTG 120 h IC50 nM N1, single agent, N1): 13.1 nM; IC50 (HCC1569 cells; HCC1569, read-out: HCC1569 CTG 120 h IC50 nM N2, single agent, N2): 11.7 nM

Source: patent US20240269304A1, “BCL-XL INHIBITOR ANTIBODY-DRUG CONJUGATES AND METHODS OF USE THEREOF” (Novartis AG, priority 2020, published 2024)
